ChEMBL document CHEMBL5727188, “GLS1 inhibitors for treating disease” (2019)

Biological target: T1, Glutaminase kidney isoform, mitochondrial (Homo sapiens, UniProt O94925)
T1 sequence (O94925 whole entry): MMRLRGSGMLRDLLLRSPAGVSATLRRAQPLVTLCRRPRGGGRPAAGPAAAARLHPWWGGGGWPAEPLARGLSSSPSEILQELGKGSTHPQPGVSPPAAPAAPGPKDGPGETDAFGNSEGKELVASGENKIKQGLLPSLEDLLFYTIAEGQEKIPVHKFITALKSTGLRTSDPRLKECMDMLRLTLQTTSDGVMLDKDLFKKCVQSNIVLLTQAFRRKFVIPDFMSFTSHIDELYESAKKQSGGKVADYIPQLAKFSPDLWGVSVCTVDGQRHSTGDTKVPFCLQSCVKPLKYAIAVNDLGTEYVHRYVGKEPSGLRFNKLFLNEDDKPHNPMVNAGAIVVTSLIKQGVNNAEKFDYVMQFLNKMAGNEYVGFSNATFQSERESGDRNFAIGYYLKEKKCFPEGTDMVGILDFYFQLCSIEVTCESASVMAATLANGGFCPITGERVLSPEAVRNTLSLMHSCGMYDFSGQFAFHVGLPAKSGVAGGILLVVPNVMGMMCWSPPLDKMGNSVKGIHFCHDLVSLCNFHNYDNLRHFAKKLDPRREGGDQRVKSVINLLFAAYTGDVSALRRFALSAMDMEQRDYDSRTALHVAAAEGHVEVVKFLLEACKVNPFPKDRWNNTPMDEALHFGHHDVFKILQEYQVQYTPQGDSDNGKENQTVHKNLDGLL
Experiment: Enzymatic Activity Assay: The inhibition of purified recombinant human GAC by varying concentrations of inhibitors is assessed via a dual-coupled enzymatic assay. The glutamate produced by the glutaminase reaction is used by glutamate oxidase to produce α-ketoglutarate, ammonia, and hydrogen peroxide, with this hydrogen peroxide subsequently being used by horseradish peroxidase to produce resorufin in the presence of Amplex UltraRed. The assay buffer consisted of 50 mM Hepes (pH 7.4), 0.25 mM EDTA and 0.1 mM Triton X-100. GAC was incubated with potassium phosphate (10 minutes at room temperature) prior to incubation with inhibitor (10 minutes at room temperature). The final reaction conditions were as follows: 2 nM GAC, 50 mM potassium phosphate, 100 mU/mL glutamate oxidase (Sigma), 1 mM glutamine (Sigma), 100 mU/mL horseradish peroxidase (Sigma), 75 μM Amplex UltraRed (Life Technologies), and 1% (v/v) DMSO. The production of resorufin was monitored on a Perkin Elmer Envision plate reader (excitation 530 nm, emission 590 nm) either in a kinetics or endpoint mode (at 20 minutes). IC50 values were calculated using a four-parameter logistic curve fit.

IC50	SMILES
< 100 nM	O=C(NCc1cc(C2CC2)ccn1)c1cn(CCC(F)Cn2cc(C(=O)NCc3cccc(C4CC4)c3)nn2)nn1 (stereo not drawn)
< 100 nM	O=C(NCc1cccc(OC(F)(F)F)c1)c1cn(CCCCn2cc(C(=O)NCc3ccc(C(F)(F)F)cn3)nn2)nn1
< 100 nM	COc1cncc(CNC(=O)c2cn(CC(F)CCc3nnc(NC(=O)Cc4cccc(OC(F)(F)F)c4)s3)nn2)c1 (stereo not drawn)
